Source: patent US20220104486A1 (priority 2019, published 2022)
Where two headings read alike, the source gives them in different places.

Tested on: Fusarium graminearum
Assay type: in vivo
Settings: seed treatment 0.3 mg ai/seed
[1] = corn, 36 days after planting, F. graminearum inoculum in furrow

SMILES: O=C(NCCc1ncc(C(F)(F)F)cc1Cl)c1ccccc1C(F)(F)F [Fluopyram]
- Count plant number per 12 row meter (corn (Zea mays, variety N29t), plant stand 36 days after planting, F. graminearum inoculum in furrow, on base treatment): 54.58, B per 12 row meter
- efficacy against Fusarium graminearum, in words (corn field trial, high disease pressure): moderate control
- % efficacy based on loss of plants due to disease [1]: 49.95%
- % loss of plants due to disease based on a maximum of 60 plants per 12 row meters [1]: 9.03%
- % loss of plants due to disease based on a maximum of 60 plants per 12 row meters (corn, 36 days after planting, F. graminearum inoculum in furrow, listed as commercial standard): 9%
